In patent US20030216427A1, “Amine derivatives for the treatment of apoptosis” (priority 2000, published 2003):

Experiments:
[1] = test system: gerbils; experiment: Global ischemia in gerbils (in vivo); parameters: species or system gerbil; settings: 30 mg/kg, 5 min carotid occlusion
Protocol: The ability of the amine compounds of formula I to protect cell death during a stroke event may be assessed using the following protocol:
Anesthesia: halothane or isoflurane (0.5-4%).
Sheaving of the gorge and incision of the skin.
The common carotid arteries (left and right) are freed from tissue.
Occlusion of the arteries using Bulldog microclamps during 5 min.
Disinfection of the surgery plan (Betadine®) and suture of the skin (Autoclip® or Michel's hooks).
Stabulation of the animals under heating lamp until awake.
Stabulation of the animals in the animalry in individual cages.
7 days after ischemia (Decapitation or overdose of pentobarbital).
Freezing of the brain in isopentane (−20° C.)
Slicing of the hippocampus using a cryo-microtome (20 μm).
Staining with cresyl violet and/or TUNEL method
Evaluation of the lesions (in CA1/CA2 subfields of the hippocampus)
Gerhard & Boast score modified or
Cell counting in the CA1/CA2
Microdissection of the cerebral structures
Parameters determined: DNA fragmentation, lactate, calcium penetration.
Analytical methods: ELISA, colorimetry, enzymology, radiometry.
Administration of the test article or the vehicle: 15 min after reperfusion (5-10 min after the recovery of the anesthesia).
50 animals : 5 groups of 10 (group A: control, groups B-D : test article at 3 doses and group E : reference compound (ketamine 3×120 mg/kg, ip or Orotic acid 3×300 mg/kg, ip).

[2] = test system: male Wistar rats; experiment: Transient model of focal cerebral ischemia (transient middle cerebral artery occlusion); assay type: in vivo, rat; settings: dose of 1 mg/kg (i.v.)
Source text: The compounds of the present invention were also subjected to the transient model of focal cerebral ischemia. The method used was adapted from Nagasawa and Kogure, Stroke, 20, 1037, 1989 as well as Zea Longa, Weinstein, Carlon and Cummins, Stroke, 20, 84, 1989.

[3] = test system: male Wistar rats; experiment: Kainate-induced neuronal cell death in the rat hippocampus; assay type: in vivo; settings: dose of 30 mg/kg (i.v.)
Protocol: The compounds of the present invention were also subjected to the model of kainate-induced neuronal cell death in the rat hippocampus. The method used was adapted from Gelowitz, Paterson, Pharmacol.Biochem.Behav., 62: 255-62 (1999), Magyar et al. Transm.Suppl., 52: 109-23 (1998) as well as Sperk et al, Brain Re., 338: 289-95 (1985). […] According to a preferred embodiment, the tested compounds display a protection rate of at least 25%, preferably of at least 40% at a dose of 30 mg/kg (i.v.)

[4] = test system: Sympathetic neurons from superior cervical ganglia (SCG) of newborn rats; experiment: Sympathetic neuron culture and survival assay; assay type: cell-based, rat; settings: compound at 10 μM; 24 hours after cell death induction by anti NGF antibody, MTT
Protocol: Cell death is induced at day 4 after plating by exposing the culture to medium containing 10 µg/ml of anti NGF antibody (Boehringer Mannheim Corp., Indianapolis, Ind.) and no NGF or arabinosine, in the presence or absence of amino derivatives according to formula I. 24 hours after cell death induction, determination of cell viability is performed by incubation of the culture for 1 hour, at 37° C. in 0.5 mg/ml of 3-(4,5-dimethyl-thiazol-2-yl)2,5 diphenyl tetrazolium bromide (MTT). After incubation in MTT cells are re-suspended in DMSO, transferred to a 96 MTT plate and cell viability is evaluated by measuring optical density at 590nm.

[5] = molecular target: T1, recombinant Bax (Homo sapiens, UniProt Q07812); experiment: In vitro assay for cytochrome c release (mouse liver mitochondria incubated with recombinant Bax); assay type: biochemical; settings: compound at a concentration of 10 μM, 200 nM recombinant Bax
T1 construct: Bax-α lacking 20 amino acids at the COOH-terminus; GST (cleaved yes); His; made in house; host or cells: Escherichia coli
Source text: Hunan Bax-α lacking 20 amino acids at the COOH-terminus is expressed as a GST fusion protein or a His-tagged protein in Escherichia coli, and the protein is purified from the soluble cell fraction. In brief, the GST-Bax fusion protein is applied to a glutathione-Sepha-rose column, and Bax was released by cleavage with thrombin (0.6U/mL). Bax is subsequently purified on heparin-Sepharose, followed by fast protein liquid chromatography (FPLC) Mono Q. His-tagged Bax is purified on a Ni-nitriloacetic acid-agarose column followed by FPLC MonoQ:
Mitochondria are isolated from mouse liver cells by differential centrifugation Cells are broken with a dounce homogenizer and the suspension is centrifuged at 2,000 g in an Eppendorf centrifuge at 4° C. This procedure is repeated until almost all the cells are broken. Supernatants from each step are pooled before centrifugation at 13,000 g at 4° C. for 10 min. […]
Mitochondria (30 μg) from mouse liver are incubated with 200 nM recombinant Bax in the presence of various compounds (5 μM) in 200 μL of KCl buffer for 20 min at 30° C. and are then centrifuged for 4 min at 13,000 g at 4° C. […] Antigen-antibody complexes are detected using horseradish peroxidase-conjugated goat anti-rabbit IgG and enhance chemi-luminescence detection reagents. The cytochrome c bands are scanned and quantified using a Bio-Rad (GS-700 Imaging Densitometer).

[6] = test system: Bid-induced Bax activation; experiment: Release of cytochrome c triggered by Bid-induced Bax activation (mitochondria isolated from HeLa cells); assay type: biochemical; settings: compound at a concentration of 5 μM, 10 nM recombinant Bid
Protocol: Concerning the Bid-induced activation of Bax leading to mitochondrial Cytochrome C release, it is referred to the description of Martinou et al. in The Journal of Cell Biology, Vol. 144, No. 5, Mar. 8, 1999, pages 891-901 as well as Eskes, Desagher, Antonsson and Martinou in Molecular and Cellular Biology, February 2000, p. 929-935, Vol. 20, No. 3. Mitochondria isolated from HeLa cells are incubated for 15 min at 30° C. in 100 μl of KCl buffer in the presence or absence of 10 nM recombinant Bid. […] Following incubation, mitochondria were centrifuged for 5 min at 13000 g at 4° C. and the supernatant is collected for cytochrome c analysis. Cytochrome c is detected by Western blotting. The cytochrome c bands are scanned and quantified using a Bio-Rad (GS-700 Imaging Densitometer).

T1 sequence (Q07812 1-172 limits assumed): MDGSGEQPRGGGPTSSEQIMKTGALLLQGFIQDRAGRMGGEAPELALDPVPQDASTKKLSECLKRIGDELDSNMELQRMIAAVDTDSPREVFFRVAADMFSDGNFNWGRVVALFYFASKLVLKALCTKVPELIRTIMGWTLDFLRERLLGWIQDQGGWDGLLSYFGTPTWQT

Structure (SMILES): CCCCCCCCCCCCC(=O)N1CCCC[C@H]1C(=O)NCCCCCCN [Example 1, (S)-1-Tridecanoyl-piperidine-2-carboxylic acid (6-amino-hexyl)-amide]
- protection rate of cell survival [1]: about 45%
- decrease in the cortex infarct volume [2]: about 56%
- protection rate [3]: about 50%

Structure (SMILES): CCCCCCCCCCCCC(=O)N1CCCC[C@@H]1C(=O)NCCCCCCN [Example 2, (R)-N-(6-aminohexyl)-1-tridecanoylpiperidine-2-carboxamide]
- neuronal survival rate [4]: about 41%

Structure (SMILES): CCCCCCCCCCCCC(=O)N1CCC[C@H]1C(=O)NCCCCCCN [Example 7, (S)-N-(6-aminohexyl)-1-tridecanoylpyrrolidine-2-carboxamide]
- inhibition at 10 µM [5]: ~88%

Structure (SMILES): CCCCCCCCCCCCC(=O)N(C)[C@H](C(=O)NCCCCCCN)C(C)C [Example 22, (S)-N-(1-{[(6-aminohexyl)amino]carbonyl)-2-methylpropyl)-N-methyltridecanamide]
- inhibition of the cytochrome c release [6]: about 95%

Structure (SMILES): CCCCCCCCCCCCC(=O)N1CCC[C@@H]1C(=O)NCCCCCN [Example 139, (R)-N-(5-aminopentyl)-1-tridecanoylpyrrolidine-2-carboxamide]
- protection rate of cell survival [1]: ~55%
